One assay concerns the target EGFR^T790M (Homo sapiens, UniProt P00533, T790M). Put plainly: EGFR^T790M kinase inhibitory assay. In kind it is biochemical.
A further assay deals with HepG2. As to the kind of experiment: MTT anti-proliferative assay, HepG2. It is filed as cell-based. As to conditions: for IC50: Homo sapiens, HepG2, 72 h, read-out: IC50 HepG2; for fold times more toxic in HepG-2 than in VERO normal cells: HepG-2 versus VERO. In general terms: Tetrazolium assays rely on reduction of a dye to a coloured formazan, in cell work by metabolically active cells.

The test system of the next assay is MCF-7. Put plainly: MTT anti-proliferative assay, MCF-7. The note with it: for IC50: Homo sapiens, MCF7, 72 h, read-out: IC50 MCF-7; for folds toxic in MCF-7 than in ordinary VERO cells: MCF-7 versus VERO. It is filed as cell-based.
The next assay deals with A549. As to the kind of experiment: MTT anti-proliferative assay, A549. As to conditions: for IC50: Homo sapiens, A549, 72 h, read-out: IC50 A549; for folds toxic in A549 than in ordinary VERO cells: A549 versus VERO. In kind it is cell-based.
The subject of another assay is HCT-116. As to the kind of experiment: MTT anti-proliferative assay, HCT-116. In kind it is cell-based. The note with it: for IC50: Homo sapiens, HCT-116, 72 h, read-out: IC50 HCT116; for folds toxic in HCT-116 than in normal VERO cells: HCT-116 versus VERO.
A further assay concerns the target VEGFR-2 (Homo sapiens, UniProt P35968). As to the kind of experiment: VEGFR-2 kinase inhibitory assay. In kind it is biochemical.

Usually IC50 stands for the concentration at which inhibition is half-maximal.

Sequence of VEGFR-2 (P35968 20-1356): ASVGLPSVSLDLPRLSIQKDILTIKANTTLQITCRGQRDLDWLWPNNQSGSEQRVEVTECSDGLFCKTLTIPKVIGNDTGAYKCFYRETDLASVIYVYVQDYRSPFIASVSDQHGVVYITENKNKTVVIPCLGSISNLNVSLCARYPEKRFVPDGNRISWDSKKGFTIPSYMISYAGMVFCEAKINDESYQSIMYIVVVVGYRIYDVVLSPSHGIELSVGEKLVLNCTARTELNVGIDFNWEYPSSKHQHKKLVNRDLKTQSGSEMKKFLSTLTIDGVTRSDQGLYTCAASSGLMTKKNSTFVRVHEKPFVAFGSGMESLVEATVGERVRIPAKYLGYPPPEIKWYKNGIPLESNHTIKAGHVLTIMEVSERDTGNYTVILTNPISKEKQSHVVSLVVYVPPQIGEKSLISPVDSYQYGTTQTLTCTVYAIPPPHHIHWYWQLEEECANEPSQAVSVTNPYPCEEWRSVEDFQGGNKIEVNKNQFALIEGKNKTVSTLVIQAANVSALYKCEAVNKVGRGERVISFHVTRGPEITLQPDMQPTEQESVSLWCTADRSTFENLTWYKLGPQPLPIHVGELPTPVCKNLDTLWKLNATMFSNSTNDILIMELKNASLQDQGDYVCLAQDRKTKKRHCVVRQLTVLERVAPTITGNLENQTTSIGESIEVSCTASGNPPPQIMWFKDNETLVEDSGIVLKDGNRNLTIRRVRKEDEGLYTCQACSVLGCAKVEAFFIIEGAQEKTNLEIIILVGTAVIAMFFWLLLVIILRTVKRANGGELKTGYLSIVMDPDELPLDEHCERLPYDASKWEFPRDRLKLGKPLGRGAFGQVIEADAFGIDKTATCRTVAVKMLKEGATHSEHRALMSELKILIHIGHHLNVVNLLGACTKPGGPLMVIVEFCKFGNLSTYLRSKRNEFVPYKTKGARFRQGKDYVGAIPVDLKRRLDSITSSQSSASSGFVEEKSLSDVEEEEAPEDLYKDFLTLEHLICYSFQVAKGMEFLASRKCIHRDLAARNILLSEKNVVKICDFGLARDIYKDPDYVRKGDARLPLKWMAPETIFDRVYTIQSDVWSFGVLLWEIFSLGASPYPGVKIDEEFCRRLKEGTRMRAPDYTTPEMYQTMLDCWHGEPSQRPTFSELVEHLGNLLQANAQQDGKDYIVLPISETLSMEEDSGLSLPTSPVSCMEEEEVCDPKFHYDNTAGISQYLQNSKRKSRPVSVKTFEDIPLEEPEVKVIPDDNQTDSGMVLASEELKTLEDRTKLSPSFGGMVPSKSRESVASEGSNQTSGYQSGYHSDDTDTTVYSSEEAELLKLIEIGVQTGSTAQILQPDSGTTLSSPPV
Sequence of EGFR^T790M (P00533 25-1210 T790M): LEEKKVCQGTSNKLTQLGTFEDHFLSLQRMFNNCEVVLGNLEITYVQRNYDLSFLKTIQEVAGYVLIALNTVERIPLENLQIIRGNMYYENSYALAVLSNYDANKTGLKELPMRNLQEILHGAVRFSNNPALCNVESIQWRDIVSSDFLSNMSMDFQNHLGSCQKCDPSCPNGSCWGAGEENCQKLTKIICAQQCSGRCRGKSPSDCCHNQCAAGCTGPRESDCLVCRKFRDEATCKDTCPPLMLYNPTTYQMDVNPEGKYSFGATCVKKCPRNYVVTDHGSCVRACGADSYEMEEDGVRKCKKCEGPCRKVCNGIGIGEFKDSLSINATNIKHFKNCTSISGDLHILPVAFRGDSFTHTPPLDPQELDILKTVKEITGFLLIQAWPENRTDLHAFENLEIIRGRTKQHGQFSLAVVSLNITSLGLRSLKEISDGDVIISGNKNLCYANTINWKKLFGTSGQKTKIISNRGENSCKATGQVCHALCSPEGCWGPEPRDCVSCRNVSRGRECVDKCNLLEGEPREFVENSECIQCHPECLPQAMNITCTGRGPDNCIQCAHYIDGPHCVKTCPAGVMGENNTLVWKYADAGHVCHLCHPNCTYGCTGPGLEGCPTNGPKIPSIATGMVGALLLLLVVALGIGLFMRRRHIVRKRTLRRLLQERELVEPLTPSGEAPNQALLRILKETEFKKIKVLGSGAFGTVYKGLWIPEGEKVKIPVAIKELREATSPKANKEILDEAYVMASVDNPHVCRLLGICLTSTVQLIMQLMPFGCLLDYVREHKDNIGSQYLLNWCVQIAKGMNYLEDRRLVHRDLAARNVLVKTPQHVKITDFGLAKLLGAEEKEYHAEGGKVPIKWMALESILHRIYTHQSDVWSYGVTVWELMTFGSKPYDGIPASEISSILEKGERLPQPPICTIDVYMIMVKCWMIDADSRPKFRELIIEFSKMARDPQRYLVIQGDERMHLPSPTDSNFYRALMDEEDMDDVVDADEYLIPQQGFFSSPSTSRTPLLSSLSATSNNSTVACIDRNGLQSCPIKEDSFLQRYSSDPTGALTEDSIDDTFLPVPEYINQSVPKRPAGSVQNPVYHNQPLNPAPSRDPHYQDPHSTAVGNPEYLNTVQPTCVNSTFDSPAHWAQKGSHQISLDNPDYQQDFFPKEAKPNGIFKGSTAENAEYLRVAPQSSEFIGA

Regarding `NC1=NOC(=O)C1=NNc1ccc(N=Nc2ccccc2)cc1` [Compound 3, 3-Amino-4-{2-[4-(phenyldiazenyl)phenyl]hydrazono}isoxazol-5(4H)-one], the IC50 against EGFR^T790M stood at 2.1 ± 0.25 µM; in the assay on HepG2 it was 19 ± 4.4 µM; in the assay on MCF-7, 17.6 ± 4.5 µM; in the assay on A549 it was 25.5 ± 3.5 µM; in the assay on HCT-116, 16.8 ± 3.7 µM; on VEGFR-2, 3.25 ± 0.5 µM.
For `NC1=NNC(=O)C1=NNc1ccc(N=Nc2ccccc2)cc1` [Compound 4, 5-Amino-4-{2-[4-(phenyldiazenyl)phenyl]hydrazono}-2,4-dihydro-3H-pyrazol-3-one], the IC50 at EGFR^T790M was determined as 1.2 ± 0.35 µM; in the assay on HepG2, 10.6 ± 3 µM; in the assay with MCF-7, 11.3 ± 3.3 µM; in the assay with A549, 10.8 ± 1.5 µM; in the assay on HCT-116 it was 11.3 ± 3.1 µM; against VEGFR-2, 1.85 ± 0.1 µM.
On to `NC1=NN(c2ccccc2)C(=O)C1=NNc1ccc(N=Nc2ccccc2)cc1` [Compound 5, 5-Amino-2-phenyl-4-{2-[4-(phenyldiazenyl)phenyl]hydrazono}-2,4-dihydro-3H-pyrazol-3-one], for which the IC50 on EGFR^T790M is 0.4 ± 0.35 µM; in the assay on HepG2, 7.8 ± 0.7 µM; with MCF-7 it was 6.98 ± 1.1 µM; in the assay on A549, 6.5 ± 1.5 µM; in the assay with HCT-116, 8.12 ± 0.9 µM; against VEGFR-2 it was 1.25 ± 0.5 µM. In addition, the “fold times more toxic in HepG-2 than in VERO normal cells” value (“fold times more toxic in HepG-2 than” for short) in the assay on HepG2 was 5.72 fold. In addition, in the assay with MCF-7, the “folds toxic in MCF-7 than in ordinary VERO cells” value (“folds toxic in MCF-7 than” for short) is 6.21 folds. Besides, the “folds toxic in A549 than in ordinary VERO cells” value (“folds toxic in A549 than” below) in the assay on A549 is 8.86 folds. Besides, the “folds toxic in HCT-116 than in normal VERO cells” value (from here on “folds toxic in HCT-116 than”) with HCT-116 worked out at 5.53 folds.
For `NC1=NN(c2ccc([N+](=O)[O-])cc2[N+](=O)[O-])C(=O)C1=NNc1ccc(N=Nc2ccccc2)cc1` [Compound 6, 5-Amino-2-(2,4-dinitrophenyl)-4-{2-[4-(phenyldiazenyl)phenyl]hydrazono}-2,4-dihydro-3H-pyrazol-3-one], the IC50 against EGFR^T790M turned out to be 0.35 ± 0.15 µM; with HepG2, 8.17 ± 2.6 µM; in the assay with MCF-7, 9.11 ± 2.7 µM; in the assay on A549, 5.88 ± 0.5 µM; in the assay with HCT-116, 10.1 ± 2.9 µM; against VEGFR-2 it was 1.6 ± 0.5 µM. Moreover, the “fold times more toxic in HepG-2 than” value in the assay with HepG2 turned out to be 5.49 fold. In addition, the “folds toxic in MCF-7 than” value in the assay with MCF-7 is 4.59 folds. Also, the “folds toxic in A549 than” value in the assay with A549 is 6.54 folds. The “folds toxic in HCT-116 than” value with HCT-116 is 4.47 folds.
For `NC(=O)N1N=C(N)C(N=Nc2ccc(N=Nc3ccccc3)cc2)C1=O` (stereo not drawn) [Compound 7, 3-Amino-5-oxo-4-{[4-(phenyldiazenyl)phenyl]diazenyl}-4,5-dihydro-1H-pyrazole-1-carboxamide], the half-inhibitory concentration (IC50) against EGFR^T790M was determined as 0.9 ± 0.25 µM; in the assay on HepG2, 15.6 ± 3.5 µM; in the assay on MCF-7 it was 14.2 ± 3.5 µM; with A549 it was 8.5 ± 0.5 µM; in the assay with HCT-116, 17.5 ± 4 µM; against VEGFR-2 it was 2.35 ± 0.2 µM.
For the molecule `N#CC(=NNc1ccc(N=Nc2ccccc2)cc1)c1nc(=S)[nH][nH]1` [Compound 9, N-[4-(Phenyldiazenyl)phenyl]-5-thioxo-2,5-dihydro-1H-1,2,4-triazole-3-carbohydrazonoyl-cyanide], the half-inhibitory concentration (IC50) was 1.35 ± 0.15 µM on EGFR^T790M; 14.5 ± 2.8 µM with HepG2; 13.8 ± 3 µM in the assay with MCF-7; 12.2 ± 2.5 µM with A549; 16.8 ± 3.3 µM in the assay with HCT-116; 2 ± 0.1 µM against VEGFR-2.
Consider `N#Cc1nn(-c2ccc(N=Nc3ccccc3)cc2)c(=S)n(-c2ccccc2)c1=O` [Compound 10, 5-Oxo-4-phenyl-2-[4-(phenyldiazenyl)phenyl]-3-thioxo-2,3,4,5-tetrahydro-1,2,4-triazine-6-carbonitrile], for which the 50% inhibitory concentration (IC50) worked out at 0.5 ± 0.25 µM against EGFR^T790M; 6.81 ± 1.9 µM with HepG2; 7.28 ± 2.4 µM in the assay on MCF-7; 7.35 ± 1.5 µM in the assay with A549; 9.23 ± 2.2 µM in the assay with HCT-116; 1.5 ± 0.1 µM against VEGFR-2. Also, the “fold times more toxic in HepG-2 than” value in the assay on HepG2 is on record as 6.39 fold. The “folds toxic in MCF-7 than” value in the assay with MCF-7 worked out at 5.81 folds. In the assay with A549, the “folds toxic in A549 than” value is reported as 8.67 folds. Further, in the assay with HCT-116, the “folds toxic in HCT-116 than” value came out at 4.96 folds.
As for `N#Cc1nn(-c2ccc(N=Nc3ccccc3)cc2)c(=S)[nH]c1=O` [Compound 11, 5-Oxo-2-[4-(phenyldiazenyl)phenyl]-3-thioxo-2,3,4,5-tetrahydro-1,2,4-triazine-6-carbonitrile], the half-maximal inhibitory concentration (IC50) on EGFR^T790M was 2.5 ± 0.35 µM; in the assay on HepG2, 35.6 ± 4.8 µM; with MCF-7, 39.2 ± 4.8 µM; in the assay on A549 it was 30.2 ± 3.5 µM; with HCT-116, 37.9 ± 4.6 µM; at VEGFR-2, 3.85 ± 0.5 µM.
With `N#Cc1nn(-c2ccc(N=Nc3ccccc3)cc2)c(=O)[nH]c1=O` [Compound 12, 3,5-Dioxo-2-[4-(phenyldiazenyl)phenyl]-2,3,4,5-tetrahydro-1,2,4-triazine-6-carbonitrile], the IC50 on EGFR^T790M came to 0.95 ± 0.35 µM; in the assay on HepG2, 21.1 ± 4.9 µM; in the assay with MCF-7 it was 30.2 ± 4.8 µM; in the assay with A549, 9.25 ± 1.5 µM; in the assay with HCT-116, 22.5 ± 4.8 µM; against VEGFR-2, 3.5 ± 0.5 µM.
Take `N#Cc1nn(-c2ccc(N=Nc3ccccc3)cc2)c(=N)[nH]c1=O` [Compound 13, 3-Imino-5-oxo-2-[4-(phenyldiazenyl)phenyl]-2,3,4,5-tetrahydro-1,2,4-triazine-6-carbonitrile]: the half-inhibitory concentration (IC50) on EGFR^T790M amounted to 1.5 ± 0.15 µM; in the assay with HepG2, 20.5 ± 4.2 µM; in the assay with MCF-7 it was 23.1 ± 3.8 µM; in the assay on A549, 15.5 ± 2.5 µM; in the assay on HCT-116 it was 20.1 ± 3.5 µM; at VEGFR-2 it was 3.35 ± 0.5 µM.
With `N#Cc1nn(-c2ccc(N=Nc3ccccc3)cc2)c(=N)n(S(=O)(=O)c2ccc(N)cc2)c1=O` [Compound 14, 4-[(4-Aminophenyl)sulfonyl]-3-imino-5-oxo-2-[4-(phenyldiazenyl)phenyl]-2,3,4,5-tetrahydro-1,2,4-triazine-6-carbonitrile], the IC50 is 0.25 ± 0.15 µM on EGFR^T790M; 6.23 ± 2.3 µM in the assay on HepG2; 6.37 ± 2.5 µM in the assay with MCF-7; 5.15 ± 1.5 µM in the assay with A549; 8.44 ± 2.6 µM in the assay on HCT-116; 0.95 ± 0.1 µM on VEGFR-2. For the same molecule, the “fold times more toxic in HepG-2 than” value with HepG2 is 6.86 fold. Also, in the assay with MCF-7, the “folds toxic in MCF-7 than” value worked out at 5.76 folds. In the assay with A549, the “folds toxic in A549 than” value stood at 10.72 folds. The “folds toxic in HCT-116 than” value with HCT-116 was found to be 7.68 folds.
Regarding `C#Cc1cccc(Nc2ncnc3cc(OCCOC)c(OCCOC)cc23)c1` [Erlotinib, reference compound], in the assay on MCF-7, the half-maximal inhibitory concentration (IC50) was 8.2 ± 0.34 µM.
With `CNC(=O)c1cc(Oc2ccc(NC(=O)Nc3ccc(Cl)c(C(F)(F)F)c3)cc2)ccn1` [Sorafenib, reference compound], the 50% inhibitory concentration (IC50) in the assay on HepG2 came to 4 ± 0.33 µM.
